# Assay results taken from US9790203B2, “Inhibitor compounds of phosphodiesterase type 10A” (ABBVIE DEUTSCHLAND GMBH & CO. KG, priority 2012, dated 2017).
# Assays:
# [1] = molecular target: PDE10A (Homo sapiens (Human), UniProt Q9Y233); assay: Measurement of PDE activity (HTRF cAMP kit, recombinant PDE); format: biochemical; conditions: recombinant PDE10, 20 nM cyclic nucleotide substrate, 60 minutes at 29 C
# Description: The recombinant PDE proteins are used in in vitro enzymatic reaction for measurement of PDE activity. These recombinant proteins, including PDE10A (human, rat and mouse PDE10) and isoforms of PDEs 1, 3, 4, and 5, were purchased from commercial vendor BPS Bioscience. The enzymatic activity of PDEs was determined by cAMP measurement kit from CisBio (IBA) using HTRF technology.
# The PDE enzymatic reaction was carried out in assay buffer (20 mM Tris-HCl pH7.5, 10 mM MgCl2, 0.1% bovine serum albumin) containing enzyme and substrate. […] The substrate cyclic nucleotide (cAMP or cGMP) concentration used in the assay was 20 nM for PDE10, and 100 nM for other PDEs. The inhibitory effect of compound was determined by incubating various concentration of inhibitor in the enzymatic assay. […] Next, the compound at varying concentration was mixed with PDE enzyme. The reaction was initiated by addition of cyclic nucleotide substrate, and incubated for 60 minutes at 29 C. The reaction was stopped by addition of lysis buffer from assay kit. The cAMP-d2 and anti-cAMP cryptate in the lysis buffer detected the level of cAMP left from the PDE hydrolysis reaction. […] Thus, IC50 value of inhibitor can be obtained by plotting inhibitor concentration against PDE activity at that concentration.
# [2] = Microsomal half-life / microsomal clearance, rat liver microsomes; format: in vitro ADME; conditions: 0.5 μM test substance, 0.25 mg microsomal protein/ml, pH 7.4, 37° C.
# Description: (§1) The metabolic stability of the compounds of the invention was determined in the following assay.
# (§2) The test substances were incubated in a concentration of 0.5 μM as follows:
# (§3) 0.5 μM test substance are preincubated together with liver microsomes from different species (from rat, human or other species) (0.25 mg of microsomal protein/ml) in 0.05 M potassium phosphate buffer of pH 7.4 in microtiter plates at 37° C. for 5 min. The reaction is started by adding NADPH (1 mg/mL). After 0, 5, 10, 15, 20 and 30 min, 50 μl aliquots are removed, and the reaction is immediately stopped and cooled with the same volume of acetonitrile. The samples are frozen until analyzed. The remaining concentration of undegraded test substance is determined by MSMS. The half-life (T1/2) is determined from the gradient of the signal of test substance/unit time plot, it being possible to calculate the half-life of the test substance, assuming first order kinetics, from the decrease in the concentration of the compound with time. The microsomal clearance (mCl) is calculated from mCl=ln 2/T1/2/(content of microsomal protein in mg/ml)×1000 [ml/min/mg] (modified from references: Di, The Society for Biomoleculur Screening, 2003, 453-462; Obach, DMD, 1999 vol 27. N 11, 1350-1359).
# [3] = Microsomal half-life / microsomal clearance, human liver microsomes; format: in vitro ADME; conditions: 0.5 μM test substance, 0.25 mg microsomal protein/ml, pH 7.4, 37° C.
# Description: as §1, §2, §3
# Chain of PDE10A (Q9Y233 whole entry, species assumed, canonical isoform): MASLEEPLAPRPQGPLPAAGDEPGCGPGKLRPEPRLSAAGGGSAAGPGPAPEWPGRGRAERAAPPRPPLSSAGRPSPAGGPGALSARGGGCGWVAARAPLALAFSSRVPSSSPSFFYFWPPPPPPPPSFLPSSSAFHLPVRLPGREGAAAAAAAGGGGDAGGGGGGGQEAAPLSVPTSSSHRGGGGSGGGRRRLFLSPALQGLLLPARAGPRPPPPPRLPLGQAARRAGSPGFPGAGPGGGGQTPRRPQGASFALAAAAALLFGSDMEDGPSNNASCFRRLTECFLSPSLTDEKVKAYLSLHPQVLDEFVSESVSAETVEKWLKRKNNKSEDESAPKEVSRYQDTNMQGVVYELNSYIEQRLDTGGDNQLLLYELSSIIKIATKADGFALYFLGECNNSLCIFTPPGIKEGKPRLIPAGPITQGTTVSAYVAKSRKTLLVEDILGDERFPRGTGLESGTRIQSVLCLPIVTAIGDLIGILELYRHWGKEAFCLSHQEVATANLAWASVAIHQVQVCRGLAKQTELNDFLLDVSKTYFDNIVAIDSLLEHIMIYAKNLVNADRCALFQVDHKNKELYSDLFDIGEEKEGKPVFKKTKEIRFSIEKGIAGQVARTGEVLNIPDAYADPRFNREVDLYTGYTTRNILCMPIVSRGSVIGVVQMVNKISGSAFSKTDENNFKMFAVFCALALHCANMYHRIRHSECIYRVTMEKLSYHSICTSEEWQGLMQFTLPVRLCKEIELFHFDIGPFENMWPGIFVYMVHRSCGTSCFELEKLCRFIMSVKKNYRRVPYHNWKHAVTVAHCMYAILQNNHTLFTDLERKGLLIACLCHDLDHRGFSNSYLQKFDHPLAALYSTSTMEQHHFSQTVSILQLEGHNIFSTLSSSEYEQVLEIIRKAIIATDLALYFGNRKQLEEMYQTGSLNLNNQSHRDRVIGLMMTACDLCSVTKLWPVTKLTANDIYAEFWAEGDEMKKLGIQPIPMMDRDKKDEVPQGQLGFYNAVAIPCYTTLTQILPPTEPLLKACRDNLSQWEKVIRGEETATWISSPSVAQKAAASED
SMILES,IC50 [1],Rat mCl [2],Human mCl [3]
"CCCn1cc(C#Cc2ccc(-c3nn(C)cc3-c3ccncc3)cc2)cn1 [Example 4, 4-(1-methyl-3-(4-((1-propyl-1H-pyrazol-4-yl)ethynyl)phenyl)-1H-pyrazole-4-yl)pyridine]",–,–,++ (<100 μl min^−1 mg^−1)
"Cc1cc(C#Cc2ccc(-c3nn(C)cc3-c3ccncc3)cc2)nc2ccccc12 [Example 16, 4-methyl-2-[2-[4-[1-methyl-4-(4-pyridyl)pyrazol-3-yl]phenyl]ethynyl]quinoline]",< 100 nM,++ (<100 μl min^−1 mg^−1),++ (<100 μl min^−1 mg^−1)
"Cn1cc(-c2ccncc2)c(-c2ccc(C#Cc3nccs3)cc2)n1.O=C(O)C(F)(F)F [Example 17, 2-[2-[4-[1-methyl-4-(4-pyridyl)pyrazol-3-yl]phenyl]ethynyl]thiazole; 2,2,2-trifluoroacetic acid]",100 to 200 nM,++ (<100 μl min^−1 mg^−1),++ (<100 μl min^−1 mg^−1)
"Cn1cc(-c2ccncc2)c(-c2ccc(C#Cc3cnc4ccccc4n3)cc2)n1.O=C(O)C(F)(F)F [Example 18, 2-[2-[4-[1-methyl-4-(4-pyridyl)pyrazol-3-yl]phenyl]ethynyl]quinoxaline; 2,2,2-trifluoroacetic acid]",< 100 nM,++ (<100 μl min^−1 mg^−1),++ (<100 μl min^−1 mg^−1)
"Cc1cccc(C#Cc2c(-c3ccncc3)nc3n2CCC3)n1.O=C(O)C(F)(F)F [Example 19, 3-[2-(6-methyl-2-pyridyl)ethynyl]-2-(4-pyridyl)-6,7-dihydro-5H-pyrrolo[1,2-a]imidazole; 2,2,2-trifluoroacetic acid]",–,+ (100-220 μl min^−1 mg^−1),+ (100-220 μl min^−1 mg^−1)
"COc1cccc(C#Cc2ccc(-c3nn(C)cc3-c3ccncc3)cc2)n1.O=C(O)C(F)(F)F [Example 20, 2-methoxy-6-[2-[4-[1-methyl-4-(4-pyridyl)pyrazol-3-yl]phenyl]ethynyl]pyridine; 2,2,2-trifluoroacetic acid]",< 100 nM,++ (<100 μl min^−1 mg^−1),++ (<100 μl min^−1 mg^−1)
"COc1cccnc1C#Cc1ccc(-c2nn(C)cc2-c2ccncc2)cc1 [Example 21, 3-methoxy-2-[2-[4-[1-methyl-4-(4-pyridyl)pyrazol-3-yl]phenyl]ethynyl]pyridine]",< 100 nM,++ (<100 μl min^−1 mg^−1),++ (<100 μl min^−1 mg^−1)
"Cc1cccc(C#Cc2ccc(-c3c(-c4ccncc4)nc4n3CCC4)cc2)n1 [Example 23, 3-[4-[2-(6-methyl-2-pyridyl)ethynyl]phenyl]-2-(4-pyridyl)-6,7-dihydro-5H-pyrrolo[1,2-a]imidazole]",100 to 200 nM,++ (<100 μl min^−1 mg^−1),++ (<100 μl min^−1 mg^−1)
"Cc1cccc(C#Cc2ccc(-c3nn(C)cc3-c3cn[nH]c3)cc2)n1 [Example 24, 2-methyl-6-[2-[4-[1-methyl-4-(1H-pyrazol-4-yl)pyrazol-3-yl]phenyl]ethynyl]pyridine]",200 to 500 nM,++ (<100 μl min^−1 mg^−1),++ (<100 μl min^−1 mg^−1)
"Cc1cccc(C#Cc2ccc(-c3nn(C)cc3-c3cncnc3)cc2)n1 [Example 25, 5-[1-methyl-3-[4-[2-(6-methyl-2-pyridyl)ethynyl]phenyl]pyrazol-4-yl]pyrimidine]",100 to 200 nM,–,–
"Cc1cccc(C#Cc2ccc(-c3nn(C)cc3-c3ccnnc3)cc2)n1 [Example 28, 4-[1-methyl-3-[4-[2-(6-methyl-2-pyridyl)ethynyl]phenyl]pyrazol-4-yl]pyridazine]",< 100 nM,–,–
"COc1ccc(-c2cn(C)nc2-c2ccc(C#Cc3cccc(C)n3)cc2)cc1 [Example 31, 2-[2-[4-[4-(4-methoxyphenyl)-1-methyl-pyrazol-3-yl]phenyl]ethynyl]-6-methylpyridine; 2,2,2-trifluoroacetic acid]",100 to 200 nM,–,–

# Continued, values first:
IC50 [1],Rat mCl [2],Human mCl [3],SMILES
< 100 nM,++ (<100 μl min^−1 mg^−1),++ (<100 μl min^−1 mg^−1),"Cn1cc(-c2ccncc2)c(-c2ccc(C#Cc3ccccn3)cc2)n1 [Example 2, 2-((4-(1-methyl-4-(pyridin-4-yl)-1H-pyrazol-3-yl)phenyl)ethynyl)pyridine]"
< 100 nM,++ (<100 μl min^−1 mg^−1),++ (<100 μl min^−1 mg^−1),"Cc1ccc(C#Cc2ccc(-c3nn(C)cc3-c3ccncc3)cc2)nc1 [Example 3, 5-methyl-2-((4-(1-methyl-4-(pyridin-4-yl)-1H-pyrazol-3-yl)phenyl)ethynyl)pyridine]"
< 100 nM,++ (<100 μl min^−1 mg^−1),++ (<100 μl min^−1 mg^−1),"Cn1cc(-c2ccncc2)c(-c2ccc(C#Cc3ccc(F)cn3)cc2)n1 [Example 5, 5-Fluoro-2-((4-(1-methyl-4-(pyridin-4-yl)-1H-pyrazol-3-yl)phenyl)ethynyl)pyridine]"
< 100 nM,++ (<100 μl min^−1 mg^−1),++ (<100 μl min^−1 mg^−1),"Cc1cccnc1C#Cc1ccc(-c2nn(C)cc2-c2ccncc2)cc1 [Example 6, 3-Methyl-2-((4-(1-methyl-4-(pyridin-4-yl)-1H-pyrazol-3-yl)phenyl)ethynyl)pyridine]"
< 100 nM,++ (<100 μl min^−1 mg^−1),++ (<100 μl min^−1 mg^−1),"Cn1cc(-c2ccncc2)c(-c2ccc(C#Cc3nccn3C)cc2)n1 [Example 7, 4-(1-methyl-3-(4-((1-methyl-1H-imidazol-2-yl)ethynyl)phenyl)-1H-pyrazole-4-yl)pyridine]"
< 100 nM,++ (<100 μl min^−1 mg^−1),++ (<100 μl min^−1 mg^−1),"Cc1ccnc(C#Cc2ccc(-c3nn(C)cc3-c3ccncc3)cc2)c1 [Example 8, 4-Methyl-2-((4-(1-methyl-4-(pyridin-4-yl)-1H-pyrazol-3-yl)phenyl)ethynyl)pyridine]"
< 100 nM,++ (<100 μl min^−1 mg^−1),++ (<100 μl min^−1 mg^−1),"Cc1cccc(C#Cc2ccc(-c3nn(C)cc3-c3ccncc3)cc2)n1 [Example 9, 2-Methyl-6-((4-(1-methyl-4-(pyridin-4-yl)-1H-pyrazol-3-yl)phenyl)ethynyl)pyridine]"
< 100 nM,++ (<100 μl min^−1 mg^−1),++ (<100 μl min^−1 mg^−1),"Cn1cc(-c2ccncc2)c(-c2ccc(C#Cc3ccc4ccccc4n3)cc2)n1 [Example 12, 2-((4-(1-methyl-4-(pyridin-4-yl)-1H-pyrazol-3-yl)phenyl)ethynyl)quinoline]"
< 100 nM,++ (<100 μl min^−1 mg^−1),++ (<100 μl min^−1 mg^−1),"Cn1cc(-c2ccncc2)c(-c2ccc(C#Cc3ccc4ncccc4n3)cc2)n1 [Example 13, 2-[2-[4-[1-methyl-4-(4-pyridyl)pyrazol-3-yl]phenyl]ethynyl]-1,5-naphthyridine]"
< 100 nM,++ (<100 μl min^−1 mg^−1),++ (<100 μl min^−1 mg^−1),"Cn1cc(-c2ccncc2)c(-c2ccc(C#Cc3cn4ccccc4n3)cc2)n1 [Example 14, 2-[2-[4-[1-methyl-4-(4-pyridyl)pyrazol-3-yl]phenyl]ethynyl]imidazo[1,2-a]pyridine]"
< 100 nM,++ (<100 μl min^−1 mg^−1),++ (<100 μl min^−1 mg^−1),"Cn1cc(-c2ccncc2)c(-c2ccc(C#Cc3ccc4cc[nH]c4n3)cc2)n1 [Example 15, 6-[2-[4-[1-methyl-4-(4-pyridyl)pyrazol-3-yl]phenyl]ethynyl]-1H-pyrrolo[2,3-b]pyridine]"
